Measured values published in patent US20250101017A1, “SALT CRYSTAL FORM AND FREE BASE CRYSTAL FORM OF KINASE INHIBITOR” (CYTOSINLAB THERAPEUTICS CO., LTD., priority 2022, published 2025).
≈ marks a conversion by molar mass, not a printed value. One block for each compound: values may come before it.

Tests used:
Format in all cases: physicochemical
[1] = Solid stability of crystal forms (80° C., light exposure, 25° C./60% RH, 40° C./75% RH); purity by liquid chromatography and XRPD of the solids; conditions: for Crystal form: XRPD
Protocol: A certain amount of API and malate crystal form VII-A were weighed and added into a liquid phase vial, and a total of 9 parallels were prepared. The 9 parallels were placed separately in 80° C. (open); 25° C., 60% RH (open); 40° C., 75% RH (open); and light stability box closed). The stabilities under conditions of: 80° C. for one day, light exposure for 10 days, as well as 25° C., 60% RH and 40° C., 75% RH for one and two weeks were tested, and the XRPD of the solids were measured.
A certain amount of crystal form B was weighed and added into a liquid phase vial, and a total of 9 parallels were prepared. 9 parallels were placed separately in 80° C.; 25° C., 60% RH, 40° C., 75% RH; and light stability boxe.

[2] = Solubility at 37° C. in buffer solutions with different pH (about 10 mg in 1 ml, 2 h and 24 h); filtrate concentration and pH, XRPD of remaining solid; conditions: for solubility at 2 h / solubility at 24 h: 37 °C, thermodynamic from solid; for solubility at 2 h: read-out: Solubility at 37° C. (mg/ml) 2 h; for solubility at 24 h: read-out: Solubility at 37° C. (mg/ml) 24 h; for pH (24 h): filtrate
Protocol: Approximately 10 mg of malate crystal form VII-A and free base Form A were weighed separately, and 1 ml of buffer solutions with different pH were added to make the solution supersaturated, and the mixtures were stirred at 37° C. for 2 h and 24 hours. The samples were filtered, and the filtrates were measured to determine the concentration and pH value, and the remaining solid was subjected to XRPD determination. The specific results were as follows: […]

[3] = Solubility of crystal form Form T in different solutions at 37° C. (about 60 mg in 2 mL, 2 h and 24 h; HPLC, pH, XRPD)
Protocol: Approximately 60 mg of the sample was weighed and added into a 4 mL bottle, and 2 mL of different solvents (water, pH 1.0, 3.0, 5.0, 7.0, 9.0, FaSSIF, FeSSIF, and SGF) were added and the mixtures were stirred at 37° C. for 24 h after adding magnetic stirring bar. Samples were taken at 2 and 24 h respectively. After filtration, the sample concentration in the filtrate was tested by HPLC, and the pH value of the filtrate and the XRPD of the remaining solid were also measured. The measured solubility of the sample in different solutions was as follows.

Degradation (%) ([1]; 25° C., 60% RH (open), 1 week): 0.03%
Purity (%) ([1]; 25° C., 60% RH (open), 1 week): 95.81%
Crystal form ([1]; 25° C., 60% RH (open), 1 week): Unchanged
Degradation (%) ([1]; 25° C., 60% RH (open), 2 weeks): 0.32%
Purity (%) ([1]; 25° C., 60% RH (open), 2 weeks): 95.52%
Crystal form ([1]; 25° C., 60% RH (open), 2 weeks): Unchanged
Degradation (%) ([1]; 40° C., 75% RH (open), 1 week): 0.13%
Purity (%) ([1]; 40° C., 75% RH (open), 1 week): 95.71%
Crystal form ([1]; 40° C., 75% RH (open), 1 week): Unchanged
Degradation (%) ([1]; 40° C., 75% RH (open), 2 weeks): 1.06%
Purity (%) ([1]; 40° C., 75% RH (open), 2 weeks): 94.78%
Crystal form ([1]; 40° C., 75% RH (open), 2 weeks): Unchanged
Degradation (%) ([1]; 80° C. (open), 1 day): 0.62%
Purity (%) ([1]; 80° C. (open), 1 day): 95.22%
Crystal form ([1]; 80° C. (open), 1 day): Unchanged
Degradation (%) ([1]; Light contral, 10 days): 0.05%
Purity (%) ([1]; Light contral, 10 days): 95.79%
Crystal form ([1]; Light contral, 10 days): Unchanged
Degradation (%) ([1]; Light exposure, 10 days): 6.67%
Purity (%) ([1]; Light exposure, 10 days): 89.17%
Crystal form ([1]; Light exposure, 10 days): Unchanged
Purity (%) ([1]; initial): 95.84%
Degradation ([1]; light exposure and 40° C., 75% RH): varying degrees of degradation
solubility at 2 h ([2]; FeSSIF, fessif, medium FeSSIF, 2 h): > 10 mg/mL
solubility at 24 h ([2]; FeSSIF, fessif, medium FeSSIF, 24 h): > 10 mg/mL
solubility at 2 h ([2]; SGF, simulated gastric fluid, medium SGF, 2 h): > 10 mg/mL
solubility at 24 h ([2]; SGF, simulated gastric fluid, medium SGF, 24 h): > 10 mg/mL
pH (24 h) ([2]; medium FaSSIF): 6.524
pH (24 h) ([2]; medium FeSSIF): 5.796
pH (24 h) ([2]; medium H2O): 7.026
pH (24 h) ([2]; medium SGF): 1.644
pH (24 h) ([2]; medium pH 1.2): 1.605
pH (24 h) ([2]; medium pH 3.0): 4.601
pH (24 h) ([2]; medium pH 4.5): 5.468
pH (24 h) ([2]; medium pH 6.8): 6.775
pH (24 h) ([2]; medium pH 7.4): 7.389
Solubility at 37° C. (mg/ml) 2 h ([2]; medium FaSSIF, 2 h): >10 mg/mL
Solubility at 37° C. (mg/ml) 24 h ([2]; medium FaSSIF, 24 h): >10 mg/mL
Solubility at 37° C. (mg/ml) 2 h ([2]; medium H2O, 2 h): >10 mg/mL
Solubility at 37° C. (mg/ml) 24 h ([2]; medium H2O, 24 h): >10 mg/mL
Solubility at 37° C. (mg/ml) 2 h ([2]; medium pH 1.2, 2 h): >10 mg/mL
Solubility at 37° C. (mg/ml) 24 h ([2]; medium pH 1.2, 24 h): >10 mg/mL
Solubility at 37° C. (mg/ml) 2 h ([2]; medium pH 3.0, 2 h): >10 mg/mL
Solubility at 37° C. (mg/ml) 24 h ([2]; medium pH 3.0, 24 h): >10 mg/mL
Solubility at 37° C. (mg/ml) 2 h ([2]; medium pH 4.5, 2 h): >10 mg/mL
Solubility at 37° C. (mg/ml) 24 h ([2]; medium pH 4.5, 24 h): >10 mg/mL
Solubility at 37° C. (mg/ml) 2 h ([2]; medium pH 6.8, 2 h): >10 mg/mL
Solubility at 37° C. (mg/ml) 24 h ([2]; medium pH 6.8, 24 h): >10 mg/mL
Solubility at 37° C. (mg/ml) 2 h ([2]; medium pH 7.4, 2 h): >10 mg/mL
Solubility at 37° C. (mg/ml) 24 h ([2]; medium pH 7.4, 24 h): >10 mg/mL
SMILES: CCc1nc2c(N)ncc(-c3ccc(N4CCC(N5CCN(CC)CC5)CC4)c(OC)c3)c2nc1NC1CCOCC1 [Malate crystal form VII-A]

pH ([3]; FaSSIF, filtrate, 2 h): 6.72
pH ([3]; FaSSIF, filtrate, 24 h): 6.73
pH ([3]; FeSSIF, filtrate, 2 h): 6.50
pH ([3]; FeSSIF, filtrate, 24 h): 6.50
pH ([3]; SGF, filtrate, 2 h): 6.20
pH ([3]; SGF, filtrate, 24 h): 6.22
pH of the solution compared to the initial pH value ([3]; other solvents (water, pH 7.0, pH 9.0, FaSSIF)): did not change significantly
crystal form of remaining solid ([3]; other solvents (water, pH 7.0, pH 9.0, FaSSIF), XRPD): did not change
pH ([3]; pH 1.0, filtrate, 2 h): 5.13
pH ([3]; pH 1.0, filtrate, 24 h): 5.17
pH of the filtrate compared to the initial pH value of the buffer solution ([3]; pH 1.0, pH 3.0, pH 5.0, FeSSIF, and SGF): significant changes
solubility at 2 h ([3]; pH 1.0 solution, simulated gastric fluid, thermodynamic from solid, pH 1.0, 37° C., 2 h): 28000 µg/mL (≈ 48.7 mM)
solubility at 24 h ([3]; pH 1.0 solution, simulated gastric fluid, thermodynamic from solid, pH 1.0, 37° C., 24 h): 29300 µg/mL (≈ 51 mM)
pH ([3]; pH 3.0, filtrate, 2 h): 6.51
pH ([3]; pH 3.0, filtrate, 24 h): 6.52
solubility at 2 h ([3]; pH 3.0 solution, aqueous buffer, thermodynamic from solid, pH 3.0, 37° C., 2 h): 23100 µg/mL (≈ 40.2 mM)
solubility at 24 h ([3]; pH 3.0 solution, aqueous buffer, thermodynamic from solid, pH 3.0, 37° C., 24 h): 23200 µg/mL (≈ 40.4 mM)
pH ([3]; pH 5.0, filtrate, 2 h): 6.66
pH ([3]; pH 5.0, filtrate, 24 h): 6.67
solubility ([3]; pH 5.0 solution, aqueous buffer, thermodynamic from solid, 37° C., pH 5.0): ~8000 µg/mL (≈ 13.9 mM)
solubility at 2 h ([3]; pH 5.0 solution, aqueous buffer, thermodynamic from solid, pH 5.0, 37° C., 2 h): 8370 µg/mL (≈ 14.6 mM)
solubility at 24 h ([3]; pH 5.0 solution, aqueous buffer, thermodynamic from solid, pH 5.0, 37° C., 24 h): 8170 µg/mL (≈ 14.2 mM)
pH ([3]; pH 7.0, filtrate, 2 h): 6.99
pH ([3]; pH 7.0, filtrate, 24 h): 6.98
solubility at 2 h ([3]; pH 7.0 solution, aqueous buffer, thermodynamic from solid, pH 7.0, 37° C., 2 h): 60 µg/mL (≈ 0.104 mM)
solubility at 24 h ([3]; pH 7.0 solution, aqueous buffer, thermodynamic from solid, pH 7.0, 37° C., 24 h): 60 µg/mL (≈ 0.104 mM)
pH ([3]; pH 9.0, filtrate, 2 h): 8.77
pH ([3]; pH 9.0, filtrate, 24 h): 8.79
solubility at 2 h ([3]; pH 9.0 solution, aqueous buffer, thermodynamic from solid, pH 9.0, 37° C., 2 h): 2 µg/mL (≈ 0.00348 mM)
solubility at 24 h ([3]; pH 9.0 solution, aqueous buffer, thermodynamic from solid, pH 9.0, 37° C., 24 h): 2 µg/mL (≈ 0.00348 mM)
solubility at 2 h ([3]; simulated gastric fluid, thermodynamic from solid, SGF, 37° C., 2 h): 27600 µg/mL (≈ 48.1 mM)
solubility at 24 h ([3]; simulated gastric fluid, thermodynamic from solid, SGF, 37° C., 24 h): 27300 µg/mL (≈ 47.5 mM)
solubility ([3]; solutions: pH 1.0, thermodynamic from solid, 37° C., pH 1.0, pH 3.0, FeSSIF, and SGF): > 18000 µg/mL
solubility ([3]; thermodynamic from solid, 37° C., water, pH 7.0, pH 9.0, and FaSSIF): < 700 µg/mL
solubility at 2 h ([3]; thermodynamic from solid, FaSSIF, 37° C., 2 h): 670 µg/mL (≈ 1.17 mM)
solubility at 24 h ([3]; thermodynamic from solid, FaSSIF, 37° C., 24 h): 700 µg/mL (≈ 1.22 mM)
solubility at 2 h ([3]; thermodynamic from solid, FeSSIF, 37° C., 2 h): 18900 µg/mL (≈ 32.9 mM)
solubility at 24 h ([3]; thermodynamic from solid, FeSSIF, 37° C., 24 h): 18700 µg/mL (≈ 32.5 mM)
solubility at 2 h ([3]; thermodynamic from solid, water, 37° C., 2 h): 2 µg/mL (≈ 0.00348 mM)
solubility at 24 h ([3]; thermodynamic from solid, water, 37° C., 24 h): 3 µg/mL (≈ 0.00522 mM)
pH ([3]; water, filtrate, 2 h): 7.20
pH ([3]; water, filtrate, 24 h): 7.12
SMILES: CCc1nc2c(N)ncc(-c3ccc(N4CCC(N5CCN(CC)CC5)CC4)c(OC)c3)c2nc1NC1CCOCC1 [Form T, 3-ethyl-8-(4-(4-(4-ethylpiperazin-1-yl)piperidin-1-yl)-3-methoxyphenyl)-N2-(tetrahydro-2H-pyran-4-yl) pyridino [3,4-b]pyrazine-2,5-diamine]
